The values that follow come from PubChem BioAssay (NCI).

Some test systems named below: ACHN renal; CAKI-1 renal; HCC-2998 colon; HOP-92 NSCLC; LOX IMVI melanoma; OVCAR-4 ovarian; OVCAR-8 ovarian; PC-3 prostate; SR leukemia; EKVX NSCLC.
What all share (assay): NCI-60 cell line screen, 48 h

Structures are written as SMILES.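 Following 48 hours of exposure in 96-well plates, responses at five concentrations were used to interpolate endpoints linearly. GI50 marks 50% less growth. Definition used: TGI = concentration required for complete inhibition of growth.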

`CCCCCC(C(O)C#N)C(O)(C(F)(F)F)C(F)(F)F` (configuration not stated): the TGI in the assay with ACHN renal, with CAKI-1 renal, in the assay on HCC-2998 colon, in the assay with HOP-92 NSCLC, in the assay with LOX IMVI melanoma and in the assay with OVCAR-4 ovarian was above 10 µM throughout. Moreover, the TGI in the assay on OVCAR-8 ovarian, with PC-3 prostate and in the assay on SR leukemia was above 10 µM in each case.
As to `Cc1sc(C)c(-c2ccc(CO)o2)c1-c1ccc(CO)o1`, the GI50 was 64.2 µM with ACHN renal; 1.16 µM with CAKI-1 renal; above 83.9 µM in the assay on HCC-2998 colon; 7.01 µM in the assay with HOP-92 NSCLC; 94.3 µM in the assay with LOX IMVI melanoma; 0.299 µM in the assay on OVCAR-4 ovarian. For the same compound, the figures for the GI50 with OVCAR-8 ovarian, with PC-3 prostate and in the assay with SR leukemia were 75.4 µM, 32.7 µM and above 77.9 µM, respectively. In addition, the TGI in the assay with ACHN renal, with CAKI-1 renal, in the assay with HCC-2998 colon, in the assay with HOP-92 NSCLC, in the assay with LOX IMVI melanoma and in the assay on OVCAR-4 ovarian was above 100 µM throughout. The TGI in the assay with OVCAR-8 ovarian, in the assay on PC-3 prostate and in the assay with SR leukemia was above 100 µM each time.
Take `CCN(Cc1c(F)cccc1F)c1ccc(CO)c(Cl)c1`: the GI50 was 20.8 µM in the assay with ACHN renal; 0.167 µM in the assay with CAKI-1 renal; 1.15 µM in the assay with HCC-2998 colon; 0.162 µM in the assay with HOP-92 NSCLC; 17.4 µM with LOX IMVI melanoma; 0.0429 µM with OVCAR-4 ovarian. For the same compound, the GI50 is 4.15 µM in the assay on OVCAR-8 ovarian, 12.6 µM in the assay on PC-3 prostate and 16.5 µM with SR leukemia. In addition, the TGI with ACHN renal is above 74.5 µM; in the assay on CAKI-1 renal it was 1.77 µM; in the assay with HCC-2998 colon, 10.7 µM; in the assay with HOP-92 NSCLC, 0.988 µM; in the assay on LOX IMVI melanoma, 32.4 µM; with OVCAR-4 ovarian, 0.319 µM. Also, the TGI with OVCAR-8 ovarian came to 35.8 µM; with PC-3 prostate it was 46.9 µM; in the assay on SR leukemia, 49.2 µM.
Regarding `COC(=O)C(Cc1ccccc1)N/C=C\C(=O)c1ccc(Cl)cc1` (configuration not stated), the GI50 was 23.6 µM with ACHN renal; 21.3 µM with CAKI-1 renal; 18.5 µM in the assay with HCC-2998 colon; 43.7 µM in the assay with HOP-92 NSCLC; 19.6 µM in the assay with LOX IMVI melanoma; 50.4 µM in the assay with OVCAR-4 ovarian. Also, the values for the GI50 in the assay on OVCAR-8 ovarian, in the assay with PC-3 prostate and with SR leukemia were 35.3 µM, 18.8 µM and 48.1 µM, respectively. The TGI is 54.9 µM with ACHN renal; 44.4 µM with CAKI-1 renal; 40.1 µM in the assay on HCC-2998 colon; above 100 µM in the assay with HOP-92 NSCLC; 39.4 µM in the assay on LOX IMVI melanoma; above 100 µM in the assay with OVCAR-4 ovarian. Moreover, the TGI in the assay with OVCAR-8 ovarian was 88.9 µM; in the assay with PC-3 prostate it was 45 µM; in the assay with SR leukemia, above 100 µM.
As to `CC1=C(C)C(=O)O[C@@H]([C@](C)(O)[C@]2(O)CC[C@@]3(O)[C@@H]4C[C@H]5O[C@]56CC=CC(=O)[C@]6(C)[C@H]4CC[C@]23C)C1`, the GI50 with ACHN renal is 0.29 µM; with CAKI-1 renal, 0.18 µM; in the assay with HCC-2998 colon it was 0.772 µM; in the assay with HOP-92 NSCLC, 0.0651 µM; in the assay on LOX IMVI melanoma, 0.188 µM; with OVCAR-4 ovarian, 0.121 µM. Further, the figures for the GI50 in the assay with OVCAR-8 ovarian, with PC-3 prostate and with SR leukemia were 0.231 µM, 0.247 µM and 0.0552 µM, respectively. Further, the TGI amounted to 1.45 µM in the assay on ACHN renal; 2.11 µM in the assay with CAKI-1 renal; 2.17 µM with HCC-2998 colon; 1.91 µM in the assay with HOP-92 NSCLC; 1.38 µM in the assay on LOX IMVI melanoma; 15.8 µM in the assay on OVCAR-4 ovarian. Also, the TGI in the assay with OVCAR-8 ovarian is 4.86 µM; in the assay with PC-3 prostate, 5.97 µM; with SR leukemia, above 100 µM.
For the compound `CNc1nc(NC2CCCC2)nc(Sc2ccc(OC)cc2)n1`, the GI50 was above 10 µM with ACHN renal; above 10 µM in the assay with CAKI-1 renal; above 10 µM with HCC-2998 colon; 1.09 µM in the assay on HOP-92 NSCLC; above 10 µM in the assay on LOX IMVI melanoma; above 10 µM in the assay on OVCAR-4 ovarian. Also, the GI50 with OVCAR-8 ovarian, with PC-3 prostate and with SR leukemia was above 10 µM throughout. Also, the TGI was above 10 µM in the assay with ACHN renal; above 10 µM with CAKI-1 renal; above 10 µM in the assay on HCC-2998 colon; 9.5 µM in the assay with HOP-92 NSCLC; above 10 µM in the assay with LOX IMVI melanoma; above 10 µM in the assay with OVCAR-4 ovarian. The TGI with OVCAR-8 ovarian, in the assay on PC-3 prostate and in the assay on SR leukemia was above 10 µM in each case.
For the compound `CCCCCC(=O)Oc1ccc(/C(=C(\C)c2ccc(OC)cc2)c2ccc(OCCN3CCCCC3)cc2)cc1`, the GI50 with ACHN renal was 10.7 µM; in the assay on EKVX NSCLC it was 9.92 µM; with HCC-2998 colon, 12.5 µM; in the assay with HOP-92 NSCLC it was 3.83 µM; in the assay on LOX IMVI melanoma it was 2.19 µM; in the assay on OVCAR-4 ovarian, 4.95 µM. In addition, the GI50 with OVCAR-8 ovarian was 12.8 µM; in the assay on PC-3 prostate, 5.65 µM; in the assay on SR leukemia it was 2.71 µM. The TGI is 22.6 µM in the assay on ACHN renal; 22.7 µM in the assay on EKVX NSCLC; 25.5 µM with HCC-2998 colon; 17 µM in the assay with HOP-92 NSCLC; 5.22 µM in the assay on LOX IMVI melanoma; 18.5 µM with OVCAR-4 ovarian. Also, the results for the TGI with OVCAR-8 ovarian, in the assay with PC-3 prostate and in the assay on SR leukemia were 29.6 µM, 18.7 µM and 22.2 µM, respectively.
